The text below walks through data of patent US4927826A, “Cycloproylpropenamides useful as platelet activing factor (PAF) antagonists” (Hoffman-La Roche Inc., priority 1988, dated 1990).

For one test, the system named is dog platelets. Description: Binding assay: inhibition of 3H-PAF binding to dog platelets. Conditions: 10 minutes at room temperature. The protocol: The binding assay was done in 400 μl polyethylene microcentrifuge tubes (Beckman) containing 50 μl of an oil mixture of 2 parts Siliconol AR200 (Serva): 1 part Silicone Fluid (Arthur H. Thomas). Buffer, standards, or analogs (150 μl total volume) were added to the tubes. Radiolabelled ^3 H-PAF (50 μl) was then added to the tubes. The reaction was started by the addition of 50 μl of dog platelets (2×10^7 platelets). The tubes were capped, inverted several times to mix, and incubated for 10 minutes at room temperature. The platelets were separated from the incubation mixture by centrifuging 1 minute in a Beckman Microfuge B centrifuge. The tip of the microfuge tube was cut off, and the platelets were washed out of the tip with 200 μl of 50% methanol (Burdick and Jackson). Aquasol (NEN, 10 ml) was added and the radioactivity in the samples was determined using an LS 8100 Beckman liquid scintillation counter linked to a Techtran tape recorder. Data was processed through an in-house computer system. Alternatively, radioactivity was determined using a Searle Mark III liquid scintillation counter linked to a Iso-Data microprocessor.
(b) Preparation of Platelets
Blood was collected from anesthesized or unanesthesized dogs into 50 ml plastic centrifuge tubes containing 3.8% sodium citrate as the anticoagulant (1 volume of citrate/9 volumes of blood). The red cells were removed by centrifugation for 15 minutes at 600 rpm (100-125 g) at room temperature. An aliquot of the supernatant platelet rich plasma (PRP) was saved for cell counting and the remainder was acidified by pH 6.5 with 0.15M citric acid. The platelet pellet was obtained after a 10 minute centrifugation at 2000 rpm (1000 g) at room temperature. Washed platelets were prepared by resuspending the platelet pellet once with PBS containing 1 mM EDTA, centrifuging as noted, and then resuspending the platelets in 0.1% BSA-PBS. An aliquot of the washed platelets was counted. Platelets used for binding assays were diluted to 2×10^7 platelets/assay tube (4×10^8 platelets/ml). Platelet counting was done using a Royco Cell-Crit 921.

The test system of test [1] is PAF-induced Bronchoconstriction. Description: PAF Induced Bronchoconstriction Assay. The test is classed as in vivo. Conditions: guinea pig, ± standard error of the mean; for Percent Inhib. of PAF-induced Bronchoconstriction, 1 mg/Kg i.v.: 1 minute pretreatment, PAF 1.0 μg/kg i.v.; for Percent Inhib. of PAF-induced Bronchoconstriction, 50 mg/Kg p.o.: 2-hour pretreatment, PAF i.v. On the procedure: PAF Induced Bronchoconstriction Assay
Male animals (Hartlet Strain, 400-500 g) were anesthetized with urethane (2 g/kg, i.p.). Each animals' trachea was cannulated and the guinea pigs were respirated using a Harvard small animal rodent respirator (3.0 cc stroke volume, 40 breaths per min.). Tracheal pressure was recorded from a cannula inserted in the trachea and connected to a Statham Pressure Transducer.
The jugular vein was cannulated for administering compounds. Spontaneous breathing was arrested with succinylcholine (1.2 mg/kg, i.v.) administered 2 minutes prior to intravenous injection of platelet activating factor (PAF).
For, the intravenous testing, the guinea pig is given a 5-minute pretreatment with propranolol at a dose of 0.1 mg/kg intravenously. The test compound is administered with a 1 minute pretreatment prior to intravenous challenge with PAF. The animal is then challenged with a 1.0 μg/kg intravenous dose of PAF and the change is tracheal pressure is measured.
For the oral testing, the procedure includes a 2-hour pretreatment period with the test compound administered through an oral gavage tube. Propranolol or succinylcholine and PAF are administered intravenously, and the change in tracheal pressure measured.
The change is tracheal pressure is determined by subtracting the steady state baseline achieved after administration of succinylcholine from the peak bronchoconstriction seen after challenge with PAF. The mean is calculated for each test compound and compared to the mean of the control animals to give the percent inhibition of bronchoconstriction. The standard error is calculated as the standard error of the mean.

For test [2], the system named is PAF-induced Platelet Count Decrease. Description: PAF induced platelet count decrease. Particulars: for Percent Inhib. of PAF-induced Platelet Count Decrease, 3 mg/Kg i.v.: guinea pig, 15 minutes after drug injection, PAF 75 ng/kg i.v. The format is in vivo, guinea pig. The protocol: PAF INDUCED PLATELET COUNT DECREASE
Male Hartley guinea pigs weighing between 500 and 900 grams were fed standard guinea pig chow and tap water ad libitum. PAF was solubilized in ethanol and stored as a 2 mM stock solution at -70° C. The stock solution of PAF was diluted to 1 pM in Tris buffer pH 7.4 and 0.1% BSA for all experiments.
(a) Intravenous Procedure
Guinea pigs were anesthetized with urethane (1.6 g/kg, i.p.). A catheter (PE50) was introduced into the right carotid artery for withdrawing blood. A second catheter PE10) was introduced into the jugular vein for injecting drugs and for administering the PAF challenge (75 ng/kg, i.v.). A control blood sample was obtained and platelets were counted in a whole blood platelet analyzer. PAF was then given and blood samples were taken 15, 30, and 60 seconds after the challenge for platelet counts. Fifteen minutes later, selected concentrations of the test compound were solubilized in DMSO and injected intravenously into a group of 4-6 animals. Only one concentration of antagonist was used in each animal group. Fifteen minutes after drug injection, blood samples were taken before and 15, 30, and 60 sec after the PAF challenge, and analyzed for platelet number.
Animals were anesthetized with sodium pentobarbital (35 mg/kg, i.p.) and the caritoid artery and jugular vein were cannulated as described above. The cannulae were exteriorized at the base of the neck and the animals were allowed to recover. At least 18 hours after surgery, conscious unrestrained guinea pigs were used in the experiment. The animals were challenged two time with PAF (120 ng/kg, i.v.); the first to establish a consistent response to PAF and the second to serve as a control for the PAF challenge. Blood samples were taken before and 15, 30, and 45 seconds after PAF challenge and platelets were counted. Thirty minutes after the control PAF challenge, the animal were orally dosed with either gum acacia or the test compound. Animals were then challenged with PAF at 1, 3, 5, and 24 hours after the administration of the drug.
DATA ANALYSIS AND STATISTICS
The % change, i.e., the difference in platelet number before and after PAF challenge was calculated by: [formula]
Statistical significance (p 0.05) of the difference between the mean PAF control and mean drug treated activity was determined with paried Student's t-test.

A word on the IC50: it is the concentration that gives 50% inhibition. A low value points to inhibition by little substance.

`O=C(/C=C/C1CC1(c1cccc(F)c1)c1cccc(F)c1)NCCCCc1cccnc1` (racemic) [[R,S-(E)]-3-[2,2-bis(3-Fluorophenyl)cyclopropyl]-N-[4-(3-pyridinyl)butyl]-2-propenamide] registered an IC50 in the test on dog platelets of 53 nM. The “Percent Inhib. of PAF-induced Bronchoconstriction, 1 mg/Kg i.v.” value in test [1] worked out at 96 ± 2%. Also, in test [2], the “Percent Inhib. of PAF-induced Platelet Count Decrease, 3 mg/Kg i.v.” value was 30%.
`O=C(/C=C\C1CC1(c1cccc(F)c1)c1cccc(F)c1)NCCCCc1cccnc1` (racemic) [[R,S-(Z)]-3-[2,2-bis(3-Fluorophenyl)cyclopropyl]-N-[4-(3-pyridinyl)butyl]-2-propenamide] showed an IC50 with dog platelets of 100 nM. Besides, the “Percent Inhib. of PAF-induced Bronchoconstriction, 50 mg/Kg p.o.” value in test [1] turned out to be 52 ± 28%. Besides, the “Percent Inhib. of PAF-induced Platelet Count Decrease, 3 mg/Kg i.v.” value in test [2] is 22%.
In the test with dog platelets, `COc1cccc(C2(c3cccc(OC)c3)C[C@@H]2/C=C/C(=O)NCCCCc2cccnc2)c1` [[R-(E)]-3-[2,2-bis(3-Methoxyphenyl)cyclopropyl]-N-[4-(3-pyridinyl)butyl]-2-propenamide] displayed a half-maximal inhibitory concentration (IC50) of 300 nM. In addition, in test [1], the “Percent Inhib. of PAF-induced Bronchoconstriction, 1 mg/Kg i.v.” value is reported as 8 ± 5% and the “Percent Inhib. of PAF-induced Bronchoconstriction, 50 mg/Kg p.o.” value is 8 ± 2%.
In the test with dog platelets, `O=C(/C=C/[C@H]1CC1(c1ccc(F)cc1)c1ccc(F)cc1)NCCCCc1cccnc1` [[R-(E)]-3-[2,2-bis(4-Fluorophenyl)cyclopropyl]-N-[4-(3-pyridinyl)butyl]-2-propenamide] showed an IC50 of 200 nM. For the same compound, in test [1], the “Percent Inhib. of PAF-induced Bronchoconstriction, 1 mg/Kg i.v.” value turned out to be 13 ± 11% and the “Percent Inhib. of PAF-induced Bronchoconstriction, 50 mg/Kg p.o.” value came to 83 ± 31%.
`O=C(/C=C/[C@@H]1CC1(c1ccccc1)c1ccccc1)NCCCCc1cccnc1` [[S-(E)]-3-(2,2-Diphenylcyclopropyl)-N-[4-(3-pyridinyl)butyl]-2-propenamide] came in with an IC50 in the test with dog platelets of 35 nM. Also, the “Percent Inhib. of PAF-induced Bronchoconstriction, 1 mg/Kg i.v.” value in test [1] turned out to be 86 ± 7%. The “Percent Inhib. of PAF-induced Platelet Count Decrease, 3 mg/Kg i.v.” value in test [2] turned out to be 44%.
With `O=C(/C=C/[C@@H]1CC1(c1cccc(F)c1)c1cccc(F)c1)NCCCCc1cccnc1` [[S-(E)]-3-[2,2-bis(3-Fluorophenyl)cyclopropyl]-N-[4-(3-pyridinyl)butyl]-2-propenamide], in the test on dog platelets, the concentration for half-maximal inhibition (IC50) was found to be 24 nM. Also, in test [1], the “Percent Inhib. of PAF-induced Bronchoconstriction, 1 mg/Kg i.v.” value turned out to be 90 ± 4% and the “Percent Inhib. of PAF-induced Bronchoconstriction, 50 mg/Kg p.o.” value amounted to 95 ± 79%. Further, the “Percent Inhib. of PAF-induced Platelet Count Decrease, 30 mg/Kg p.o.” value in test [2] (conscious guinea pig, 30 mg/Kg p.o., PAF 120 ng/kg i.v.) was 66%.
As to `COc1cccc(C2(c3cccc(OC)c3)C[C@H]2/C=C/C(=O)NCCCCc2cccnc2)c1` [[S-(E)]-3-[2,2-bis(3-Methoxyphenyl)cyclopropyl]-N-[4-(3-pyridinyl)butyl]-2-propenamide], the IC50 in the test on dog platelets came to 36 nM. Moreover, the “Percent Inhib. of PAF-induced Bronchoconstriction, 1 mg/Kg i.v.” value in test [1] came to 25 ± 8%.
As to `O=C(/C=C/[C@@H]1CC1(c1ccc(F)cc1)c1ccc(F)cc1)NCCCCc1cccnc1` [[S-(E)]-3-[2,2-bis(4-Fluorophenyl)cyclopropyl]-N-[4-(3-pyridinyl)butyl]-2-propenamide], the IC50 in the test with dog platelets stood at 25 nM. In test [1], the “Percent Inhib. of PAF-induced Bronchoconstriction, 1 mg/Kg i.v.” value amounted to 33 ± 7% and the “Percent Inhib. of PAF-induced Bronchoconstriction, 50 mg/Kg p.o.” value is recorded as 62 ± 13%.
